Columns and labels:
HCT116 = experiment: MTT assay, antiproliferative activity against HCT116 cells; format: cell-based; settings: Homo sapiens, HCT-116, 72 h, mean of at least two determinations
From the text: (§1) All synthesized target compounds were firstly tested for their antiproliferative activity against five human cancer cell lines, PC3, A549, HCT116, HL60, and KB, using MTT assay.
(§2) Human prostate cancer PC3 cells, lung adenocarcinoma epithelial A549 cells, colon cancer HCT116 cells, promyelocytic leukemia HL60 cells and nasopharyngeal carcinoma KB cells were obtained from the cell bank of the Institute of Biochemistry and Cell Biology, Chinese Academy of Sciences (Shanghai, China). The inhibitory activity of target compounds against tested cancer cell lines was measured using the MTT assay. PC3, A549, HCT116, HL60, and KB cancer cell lines were cultured in RPMI-1640 medium (Invitrogen, Carlsbad, CA, USA) with heat-inactivated 10% fetal bovine serum, penicillin (100 units/mL) and streptomycin (100 µg/mL) and incubated in an atmosphere with 20% oxygen and 5% carbon dioxide at 37°C. All tested compounds were dissolved in DMSO at concentrations of 10.0 mg/mL and diluted to appropriate concentrations. Cells were plated in 96-well plates for 24 h and subsequently treated with different concentrations of all tested compounds for 72 h. Viable cells were determined using 3-(4,5-dimethylthiazol-2-yl)-2,5-diphenyltetrazolium bromide assay kit (MTT, Sigma) according to operation instructions provided by the manufacturer. The concentration of drug causing 50% inhibition in absorbance compared with control cells (IC50) was calculated using the software of dose-effect analysis with microcomputers.

KB = experiment: MTT assay, antiproliferative activity against KB cells; format: cell-based; settings: Homo sapiens, 72 h, mean of at least two determinations
From the text: as §1, §2

A549 = experiment: MTT assay, antiproliferative activity against A549 cells; format: cell-based; settings: Homo sapiens, 72 h, mean of at least two determinations
From the text: as §1, §2

HL60 = experiment: MTT assay, antiproliferative activity against HL60 cells; format: cell-based; settings: Homo sapiens, HL-60, 72 h, mean of at least two determinations
From the text: as §1, §2

PC3 = experiment: MTT assay, antiproliferative activity against PC3 cells; format: cell-based; settings: Homo sapiens, PC-3, 72 h, mean of at least two determinations
From the text: as §1, §2

Compound	IC50 (HCT116) [µM]	melting point [°C]	IC50 (KB) [µM]	IC50 (A549) [µM]	IC50 (HL60) [µM]	IC50 (PC3) [µM]
Cc1ccc(S(=O)(=O)c2nc3ccccc3nc2N2CCC(C(N)=O)CC2)cc1 [Compound 5, 2-(4-Carbamoylpiperidin-1-yl)-3-(4-methylphenylfsulfonyl)quinoxaline]	1.2	200 to 203	11.8	27.4	0.14	2.28
COc1ccc(S(=O)(=O)c2nc3ccccc3nc2N2CCC(C(N)=O)CC2)cc1 [Compound 6, 2-(4-Carbamoylpiperidin-1-yl)-3-(4-methoxyphenylsulfonyl)quinoxaline]	2.55	185 to 187	10.2	17	0.21	2.28
NC(=O)C1CCN(c2nc3ccccc3nc2S(=O)(=O)c2ccc(Br)cc2)CC1 [Compound 7, 2-(4-Carbamoylpiperidin-1-yl)-3-(4-bromophenylsulfonyl)quinoxaline]	1.61	209 to 210	4.22	12.1	0.15	1.17
NC(=O)C1CCN(c2nc3ccccc3nc2S(=O)(=O)c2ccc(F)cc2)CC1 [Compound 8, 2-(4-Carbamoylpiperidin-1-yl)-3-(4-fluorophenylsulfonyl)quinoxaline]	7.13	198 to 202	6.45	10.2	4.15	4.36
CC(=O)N1CCN(c2nc3ccccc3nc2S(=O)(=O)c2ccc(C)cc2)CC1 [Compound 10, 2-(4-Acetylpiperazin-1-yl)-3-(4-methylphenylsulfonyl)quinoxaline]	2.6	148 to 150	3.89	2.42	3.28	2.27
COc1ccc(S(=O)(=O)c2nc3ccccc3nc2N2CCN(C(C)=O)CC2)cc1 [Compound 11, 2-(4-Acetylpiperazin-1-yl)-3-(4-methoxyphenylsulfonyl)quinoxaline]	3.66	160 to 162	10.3	18.6	0.48	2.18
CC(=O)N1CCN(c2nc3ccccc3nc2S(=O)(=O)c2ccc(Br)cc2)CC1 [Compound 12, 2-(4-Acetylpiperazin-1-yl)-3-(4-bromophenylsulfonyl)quinoxaline]	0.53	174 to 178	4.3	9.79	0.12	3.03
CC(=O)N1CCN(c2nc3ccccc3nc2S(=O)(=O)c2ccc(F)cc2)CC1 [Compound 13, 2-(4-Acetylpiperazin-1-yl)-3-(4-fluorophenylsulfonyl)quinoxaline]	4.34	108 to 112	6.15	7.12	1.78	3.17
COc1ccc(S(=O)(=O)c2nc3ccccc3nc2N2CCN(C)CC2)cc1 [Compound 16, 2-(4-Methylpiperazin-1-yl)-3-(4-methoxyphenylsulfonyl)quinoxaline]	2.37	121 to 124	2.53	8.57	0.54	1.55
CN1CCN(c2nc3ccccc3nc2S(=O)(=O)c2ccc(F)cc2)CC1 [Compound 18, 2-(4-Methylpiperazin-1-yl)-3-(4-fluorophenylsulfonyl)quinoxaline]	8.21	147 to 148	21.6	7.95	2.75	3.09
Cc1ccc(S(=O)(=O)c2nc3ccccc3nc2N2CCNCC2)cc1 [Compound 20, 2-(Piperazin-1-yl)-3-(4-methylphenylsulfonyl)quinoxaline]	0.47	–	7.26	14.4	0.12	1.32
COc1ccc(S(=O)(=O)c2nc3ccccc3nc2N2CCNCC2)cc1 [Compound 21, 2-(Piperazin-1-yl)-3-(4-methoxyphenylsulfonyl)quinoxaline]	0.63	142 to 144	11.5	1.37	0.16	0.68
O=S(=O)(c1ccc(F)cc1)c1nc2ccccc2nc1N1CCNCC1 [Compound 23, 2-(Piperazin-1-yl)-3-(4-fluorophenylsulfonyl)quinoxaline]	2.43	–	4.58	2.79	1.39	2.05
CC1CN(c2nc3ccccc3nc2S(=O)(=O)c2ccc(F)cc2)CCN1 (stereo not drawn) [Compound 28, 2-(3-Methylpiperazin-1-yl)-3-(4-fluorophenylsulfonyl)quinoxaline]	2.2	119 to 123	2.03	3.45	1.95	2.34
Cc1ccc(S(=O)(=O)c2nc3ccccc3nc2N2CCN(C(=O)c3ccccc3)CC2)cc1 [Compound 30, 2-(4-Benzoylpiperazin-1-yl)-3-(4-methylphenylsulfonyl)quinoxaline]	6.9	182 to 185	3.67	8.03	17.3	5.81
COc1ccc(S(=O)(=O)c2nc3ccccc3nc2N2CCN(C(=O)c3ccccc3)CC2)cc1 [Compound 31, 2-(4-Benzoylpiperazin-1-yl)-3-(4-methoxyphenylsulfonyl)quinoxaline]	17.2	166 to 169	5.65	7.43	6.93	3.63
O=C(c1ccccc1)N1CCN(c2nc3ccccc3nc2S(=O)(=O)c2ccc(Br)cc2)CC1 [Compound 32, 2-(4-Benzoylpiperazin-1-yl)-3-(4-bromophenylsulfonyl)quinoxaline]	10.1	204 to 205	3.37	3.96	17.4	1.4
O=C(c1ccccc1)N1CCN(c2nc3ccccc3nc2S(=O)(=O)c2ccc(F)cc2)CC1 [Compound 33, 2-(4-Benzoylpiperazin-1-yl)-3-(4-fluorophenylsulfonyl)quinoxaline]	8.88	200 to 202	1.22	1.16	6.95	1.77
Cc1ccc(S(=O)(=O)c2nc3ccccc3nc2N2CCN(C(=O)c3ccc(Cl)cc3)CC2)cc1 [Compound 35, 2-(4-(4-Chlorobenzoyl)piperazin-1-yl)-3-(4-methylphenylsulfonyl)quinoxaline]	9.84	188 to 190	2.84	21.6	6.09	3.61
COc1ccc(S(=O)(=O)c2nc3ccccc3nc2N2CCN(C(=O)c3ccc(Cl)cc3)CC2)cc1 [Compound 36, 2-(4-(4-Chlorobenzoyl)piperazin-1-yl)-3-(4-methoxyphenylsulfonyl)quinoxaline]	9.62	179	6.03	> 50	5.58	2.43
O=C(c1ccc(Cl)cc1)N1CCN(c2nc3ccccc3nc2S(=O)(=O)c2ccc(Br)cc2)CC1 [Compound 37, 2-(4-(4-Chlorobenzoyl)piperazin-1-yl)-3-(4-bromophenylsulfonyl)quinoxaline]	10.6	214 to 216	5.09	> 50	6.11	2.89
Cc1ccc(S(=O)(=O)c2nc3ccccc3nc2N2CCN(CCCN3CCOCC3)CC2)cc1 [Compound 50, 2-(4-(3-Morpholinopropyl)piperazin-1-yl)-3-(4-methylphenylsulfonyl)quinoxaline]	0.31	–	–	0.51	–	3.83
COc1ccc(S(=O)(=O)c2nc3ccccc3nc2N2CCN(CCCN3CCOCC3)CC2)cc1 [Compound 51, 2-(4-(3-Morpholinopropyl)piperazin-1-yl)-3-(4-methoxyphenylsulfonyl)-quinoxaline]	2.59	–	–	2.1	–	9.3
O=S(=O)(c1ccc(F)cc1)c1nc2ccccc2nc1N1CCN(CCCN2CCOCC2)CC1 [Compound 53, 2-(4-(3-Morpholinopropyl)piperazin-1-yl)-3-(4-fluorophenylsulfonyl)quinoxaline]	0.93	–	–	1.12	–	4.8
O=c1cc(N2CCOCC2)oc2c(-c3ccccc3)cccc12 [LY294002, 2-(4-morpholinyl)-8-phenyl-4H-1-benzopyran-4-one, reference compound]	56	–	44.8	89.7	9.94	61.4
